Test [1] deals with 6-phosphofructo-2-kinase/fructose-2,6-bisphosphatase 3 (Homo sapiens, UniProt Q16875). The test can be described thus: Inhibition of PFKFB3 (unknown origin).
In test [2] the target is T1, Monocarboxylate transporter 1 (Homo sapiens, UniProt P53985).
T1 sequence (P53985 whole entry): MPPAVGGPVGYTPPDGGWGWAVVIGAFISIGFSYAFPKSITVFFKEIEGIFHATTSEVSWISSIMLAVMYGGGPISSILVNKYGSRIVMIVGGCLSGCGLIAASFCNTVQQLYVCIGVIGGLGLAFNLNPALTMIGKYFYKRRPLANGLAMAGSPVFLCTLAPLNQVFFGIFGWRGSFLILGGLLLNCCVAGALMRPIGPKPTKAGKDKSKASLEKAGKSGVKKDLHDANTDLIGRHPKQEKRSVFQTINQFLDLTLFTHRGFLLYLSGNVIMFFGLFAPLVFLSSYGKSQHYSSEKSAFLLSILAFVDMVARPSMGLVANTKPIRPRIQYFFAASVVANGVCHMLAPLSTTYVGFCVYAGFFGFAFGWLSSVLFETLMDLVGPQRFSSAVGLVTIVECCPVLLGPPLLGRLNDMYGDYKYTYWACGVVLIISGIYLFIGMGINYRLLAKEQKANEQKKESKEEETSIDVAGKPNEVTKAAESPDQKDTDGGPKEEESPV
Kind of test: Binding affinity to MCT1 (unknown origin).

Test [3] concerns the target T2, Pyruvate kinase PKM (Homo sapiens, UniProt P14618). The test can be described thus: Activation of pyruvate kinase PKM2 in human A549 cells. The class given is cell-based.
For test [4], the target named is T2, Pyruvate kinase PKM. Kind of test: Activation of pyruvate kinase PKM2 (unknown origin).
Test [5] is described as follows: Growth inhibition of human H1299 cells. The class given is functional, NCI-H1299.
A short description of test [6]: Cytotoxicity against human H1299 cells assessed as reduction in cell viability. The class given is functional, cell-based. To be noted: NCI-H1299.
In a further test the test system is A549. Kind of test: Antitumor activity against human A549 cells in in-vivo xenograft model assessed as reduction in tumor volume at 10 mg/kg/day, ip. The class given is functional. To be noted: route intraperitoneal. A general note: Xenograft models place foreign cells or tissue in a host animal.
For a further test, the species on record is Homo sapiens. Kind of test: Inhibition of glucose transporter GLUT (unknown origin) by standard glucose uptake assay. Particulars: concentration not given here.
Test [7] is described as follows: Growth inhibition of VHL deficient human RCC4 cells. The class given is functional, cell-based.
Test [8] can be described thus: Growth inhibition of VHL-positive human RCC4/VHL cells. It counts as functional, cell-based.
A further test has as its target Alpha-enolase (Homo sapiens, UniProt P06733). The test can be described thus: Inhibition of ENO1 (unknown origin).
The next test concerns the target T3, Hexokinase-2 (Homo sapiens, UniProt P52789).
T3 sequence (P52789 whole entry): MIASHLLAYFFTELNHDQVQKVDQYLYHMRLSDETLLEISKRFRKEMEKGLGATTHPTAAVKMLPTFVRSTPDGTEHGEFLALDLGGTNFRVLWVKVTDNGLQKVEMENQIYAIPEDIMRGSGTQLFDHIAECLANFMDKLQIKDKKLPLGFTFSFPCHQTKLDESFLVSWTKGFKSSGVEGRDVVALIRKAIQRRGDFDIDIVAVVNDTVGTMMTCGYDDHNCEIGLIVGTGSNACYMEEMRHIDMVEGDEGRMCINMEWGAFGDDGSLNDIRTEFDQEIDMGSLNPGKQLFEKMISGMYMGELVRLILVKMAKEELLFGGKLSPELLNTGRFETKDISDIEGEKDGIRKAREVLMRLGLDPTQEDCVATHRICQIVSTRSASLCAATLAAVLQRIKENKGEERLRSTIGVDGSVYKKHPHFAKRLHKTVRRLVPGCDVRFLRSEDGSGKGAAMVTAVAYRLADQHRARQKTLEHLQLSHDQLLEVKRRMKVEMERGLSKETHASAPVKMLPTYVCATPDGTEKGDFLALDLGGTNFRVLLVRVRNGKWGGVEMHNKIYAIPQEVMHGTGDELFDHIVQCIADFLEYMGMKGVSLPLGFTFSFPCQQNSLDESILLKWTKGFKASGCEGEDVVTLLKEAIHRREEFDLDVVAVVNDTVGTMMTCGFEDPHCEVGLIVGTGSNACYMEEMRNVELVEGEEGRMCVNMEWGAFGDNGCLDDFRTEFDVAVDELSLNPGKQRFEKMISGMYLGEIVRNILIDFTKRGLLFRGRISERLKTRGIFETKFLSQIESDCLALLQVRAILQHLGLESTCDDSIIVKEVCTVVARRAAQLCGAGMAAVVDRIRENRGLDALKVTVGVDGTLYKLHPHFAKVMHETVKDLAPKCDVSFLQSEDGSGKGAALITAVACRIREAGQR
Kind of test: Inhibition of hexokinase 2 (unknown origin).

A short description of test [9]: Antiproliferative activity against human MIAPaCa2 cells assessed as inhibition of cell proliferation. Particulars: MIA PaCa-2. It counts as functional, cell-based.

T2 sequence (P14618 whole entry): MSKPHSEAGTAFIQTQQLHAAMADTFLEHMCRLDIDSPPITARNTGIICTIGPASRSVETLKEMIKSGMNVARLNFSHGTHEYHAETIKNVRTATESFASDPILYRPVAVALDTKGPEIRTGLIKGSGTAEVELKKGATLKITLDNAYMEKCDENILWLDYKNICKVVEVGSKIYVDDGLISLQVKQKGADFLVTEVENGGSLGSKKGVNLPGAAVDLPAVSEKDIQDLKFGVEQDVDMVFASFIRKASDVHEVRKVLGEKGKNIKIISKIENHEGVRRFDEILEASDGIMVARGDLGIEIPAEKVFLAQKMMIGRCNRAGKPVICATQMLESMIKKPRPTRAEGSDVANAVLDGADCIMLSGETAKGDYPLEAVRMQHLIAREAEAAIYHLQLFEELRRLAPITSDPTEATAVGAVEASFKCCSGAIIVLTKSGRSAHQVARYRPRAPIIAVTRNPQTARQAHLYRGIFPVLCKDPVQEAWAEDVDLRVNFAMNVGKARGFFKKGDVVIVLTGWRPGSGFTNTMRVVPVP
Sequence of 6-phosphofructo-2-kinase/fructose-2,6-bisphosphatase 3 (Q16875 whole entry): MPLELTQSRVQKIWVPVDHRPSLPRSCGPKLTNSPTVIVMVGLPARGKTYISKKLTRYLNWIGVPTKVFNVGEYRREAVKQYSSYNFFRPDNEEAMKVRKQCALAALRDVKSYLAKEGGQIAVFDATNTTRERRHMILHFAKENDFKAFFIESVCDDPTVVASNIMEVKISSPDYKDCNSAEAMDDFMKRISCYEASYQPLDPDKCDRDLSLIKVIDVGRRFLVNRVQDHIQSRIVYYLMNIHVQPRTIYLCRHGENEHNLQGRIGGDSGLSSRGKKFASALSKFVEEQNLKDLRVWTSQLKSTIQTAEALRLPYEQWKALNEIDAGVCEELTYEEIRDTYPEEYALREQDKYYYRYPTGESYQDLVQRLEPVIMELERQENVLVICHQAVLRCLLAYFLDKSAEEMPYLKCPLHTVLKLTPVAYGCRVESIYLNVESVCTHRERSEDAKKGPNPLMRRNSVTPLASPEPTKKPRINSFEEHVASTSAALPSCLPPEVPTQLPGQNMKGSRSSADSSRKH
Sequence of Alpha-enolase (P06733 whole entry): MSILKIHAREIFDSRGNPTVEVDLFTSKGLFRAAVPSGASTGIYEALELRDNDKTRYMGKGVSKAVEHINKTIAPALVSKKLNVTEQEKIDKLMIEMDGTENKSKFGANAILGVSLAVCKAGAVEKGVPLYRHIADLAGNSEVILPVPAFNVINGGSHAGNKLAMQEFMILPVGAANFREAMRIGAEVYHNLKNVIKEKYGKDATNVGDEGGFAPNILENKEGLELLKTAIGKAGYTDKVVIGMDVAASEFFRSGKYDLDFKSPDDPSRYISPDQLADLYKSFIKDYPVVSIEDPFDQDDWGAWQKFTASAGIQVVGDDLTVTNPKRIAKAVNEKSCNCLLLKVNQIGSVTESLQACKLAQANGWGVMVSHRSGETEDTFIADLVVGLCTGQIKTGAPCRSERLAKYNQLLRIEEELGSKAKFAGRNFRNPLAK

`O=C(/C=C/c1cccnc1)c1ccncc1`: the IC50 (as a rule, the concentration needed to halve the response being measured) in [1] amounted to 22900 nM.

Compound `O=C(/C=C/c1ccc2ccccc2n1)c1ccncc1` showed an IC50 in test [1] of 207 nM.

On to `Cc1[nH]nc(C(F)(F)F)c1Cc1sc2c(c1C(=O)N1C[C@](C)(O)CO1)c(=O)n(C)c(=O)n2C(C)C` [AZD3965], for which, in test [2], the Kd (commonly the concentration at which binding is half-saturated) was 1.6 nM.

In the case of `COc1ccccc1N1CCN(C(=O)c2ccc(NS(=O)(=O)c3cccc4cccnc34)cc2)CC1`, the AC50 – broadly, the concentration at which the activity in the assay is half-maximal – was determined as 45 nM on Pyruvate kinase PKM [3] and 17 nM on Pyruvate kinase PKM [4].

On to `CS(=O)(=O)N1CCc2cc(S(=O)(=O)c3ccc4c(c3)OCCO4)ccc21`, for which, at Pyruvate kinase PKM [4], the AC50 came to 45 nM.

Take `O=C(Oc1cccc(F)c1OC(=O)c1cccc(O)c1)c1cccc(O)c1`: the “growth inhibition (GI)” value in [5] is reported as 41%. For the same compound, in test [6], the IC50 is 10000 nM. In addition, the inhibition in vivo (usually how much of the control response was suppressed) at 10 mg/kg/day with A549 stood at 70%. Moreover, in the test listed under Homo sapiens, the inhibition (as a rule, how much of the control response was suppressed) worked out at 93%.

As for `NCCOCCOCCOCCOCCOCCOCCCc1ccc(S(=O)(=O)NCc2ccc(C(=O)Nc3cccnc3)cc2)cc1`, the IC50 in [7] was 7900 nM; in [8], greater than 40000 nM.

`NCCOCCOCCNC(=O)Cc1ccc(Nc2nc(NCc3ccc(F)cc3)nc(NCC3CCCCC3)n2)cc1`: at Alpha-enolase, inhibition was half-maximal at 576 nM (IC50).

On Hexokinase-2, `Cc1ccc(S(=O)(=O)NC[C@H]2O[C@@H](O)[C@H](NC(=O)/C=C/c3ccc(Cl)c(Cl)c3)[C@@H](O)[C@@H]2O)cc1` gave an IC50 of less than 316 nM.

In the case of `O=C1CC(c2ccc(N3CCOCC3)cc2)(c2ccsc2)NC(=O)C1Sc1ccccc1Cl` (stereo not given), the EC50 (commonly the midpoint of the concentration-response curve) in test [9] came out at 250 nM.

Values taken from ChEMBL document CHEMBL3351282, “An update on therapeutic opportunities offered by cancer glycolytic metabolism” (Bioorg Med Chem Lett, 2014).
